The test system of one data set is γ-H2AX in Hep2 cells. Description: Kinetics of persistence of DSB sites (γ-H2AX) by FACS in irradiated Hep2 cells. Type of data set: cell-based, human. The following applies: Hep2, 10 Gy, 0 min to 7 days. The method, then:
To investigate the effect of Dbait on ionizing radiation-induced g-H2AX foci formation and loss, Dbait32H-Cy3 (SEQ ID NO: 1) were transfected in the Hep2 cells by superfect (Qiagen). Transfected or untransfected Hep2 cells were irradiated at 10 Gy. Cells were fixed at different times (0 min, 30 min, 1 hour, 5 hours, 24 hours, 48 hours, 72 hours and 7 days). Primary mouse monoclonal antibody for g-H2AX (ser139) (Upstate, Tempcula, Calif., USA) was used in 1/500 dilution and incubated for 2 hours at 0° C., then washed by PBS buffer and incubated with Alexa 488-conjugated second antibody anti mouse IgG (Molecular Probe, Eugene, Oreg., USA) diluted in 1/200 for 1 hour in dark room.

The subject of data set [1] is γ-H2AX foci in GMA32 cells. Description: Immunodetection of γ-H2AX DSB foci in GMA32 cells. As to conditions: GMA32, Dbait with lipofectamine, no irradiation. The data set is classed as cell-based, Chinese hamster. The method, then:
Under the same conditions, the immunodetection of DSB foci of γ-H2AX phosphorylated on serine 139 by γ-H2AX labeling (bright dots or patches in nuclei) was performed in the untreated GMA32 cells, the cells transfected alone, or transfected with different Dbait molecules by lipofectamine. The counterstaining of cell membranes and nuclei were achieved by FITC-DiOC6 and DAPI. Similar effects of Dbait molecules were observed (FIG. 3.2). […] This provides visual evidence that these Dbait molecules can be used for trapping proteins involved in DSB repair via NHEJ pathway.
For immunodetection, the cells were grown on coverslip in 5 cm diameter Petri dishes 24 hours before the transfection with different Dbait molecules. One day after the transfection, FITC-DiOC6 (Molecular probes) was added in the medium 5 minutes at 37° C. (to counterstain the membranes). After 3 washing cycles, the cells were fixated with 4% PFA for 20 minutes.
After additional washing, γ-H2AX phosphorylated on serine 139 (γ-H2AX) was detected with. rabbit anti-γ-H2AX antibody (4411-PC, Trevigen) diluted 1/100 in 1×PBS, 1% BSA. Cells were washed three times with 1×PBS, 0.5%, TritonX-100, then incubated for 1 hour at room temperature with goat anti-rabbit antibodies Alexa 594 (Molecular Probes) diluted 1/100 in 1×PBS, 1% BSA. Cells were visualized by epifluorescence microscopy.

Data set [2] concerns U87 xenografted human glioblastoma. Description: Radiosensitization of xenografted human glioblastoma (U87) on nude mice. Type of data set: in vivo. The following applies: for Number of mice where Tumor volume <4 cm^3 At the day 25 (6 mice per group): 1 nmole/intratumoral injection, total 30 Gy. The source says: Radio-sensitization was also observed in mice xenografted with human glioblastoma tumors. The glioblastoma is the highest grade of brain-tumor, and is characterized by its extraordinary aggressive progression with fast fatal outcome and resistance to radio- and chemotherapies. 2-3 millions of U87 cells derived from human glioblastoma was first injected subcutaneously in nude mouse. The grafted tumor was then took out and used to seed subsequently other nude mice by subcutaneous transplant of about 8 mm^3 glioblastoma tumor.
50% mice in the arm which received Dbait32H (SEQ ID NO: 1) (1 nmole) by intratumoral injection and irradiation (1×15 Gy/week or 3×5 Gy/week, followed by one week rest, then second treatment cycle, the total dose of ionizing radiation was 30 Gy) had tumor volume<4 cm^3 at the day 25 after the start of treatment, whereas 100% mice in the control arms (untreated or irradiated and injected with saline solution (PBS) had tumor volume well exceeded 4 cm^3, and were killed before the end of the assay according to current regulation on animal ethics before the end of the treatment.
Table 3.1: Assay of radiosensitization of xenografted human glioblastoma on nude mice by Dbait32H (SEQ ID NO: 1) (1 nmole/intratumoral injection) previously named DRIL32-PEG. Two protocols of irradiation (5 hours after intratumoral injection) were used: 1×15 Gy/week, or 3×5 Gy/week, followed by one week rest, the second treatment cycle. The total irradiation dose was 30 Gy. Control groups were the untreated or the groups received saline solution (PBS) injection.
On the technique in general: A xenograft is tissue or cells of one species grown in another, often human tumour cells in immunodeficient mice.

Data set [3] has as its system digestive tumors induced in K-Ras^V12G×Apc^1638N transgenic mice. Description: Chemosensitization of digestive tumors in K-Ras^V12G×Apc^1638N transgenic mice. Type of data set: in vivo. The text has this:
An endogenous mouse tumor model was chosen to assess the ability of Dbait molecules to sensitize anticancer chemotherapy. To this end, transgenic mice carrying K-Ras^V12G and Apc^1638N mutations were used. They were obtained by breeding two transgenic mice: one carries K-Ras^V12G mutant under the control of the mouse villin promoter(pVill/K-Ras^V12G) (Janssen et al., 2002), the other contains Apc^1638N mutation in one allele (Fodde et al., 1994). Transgenic mice with pVill/K-Ras^V12G×Apc^1638N mutations developed spontaneous tumors in the digestive tract at the age of about 5 months and died rapidly.
They were treated at the mean age of 12 weeks by a combination of chemotherapy (5FU+CPT11) and of Dbait32H (SEQ ID NO: 1) versus chemotherapy alone, according to the protocol shown in FIG. 5.1 panel A. The protocol includes three treatment cycles.
Each cycle consists of intraperitoneal injection of 0.6 mg 5FU and 0.6 mg CPT11, along with 0.1 mg Dbait32H (SEQ ID NO: 1) by oral administration, three times a week, followed by one week rest.
5FU (5 fluorouracile, Teva) was prepared in 0.9% NaCl solution at the concentration of 50 mg/ml. CPT11/Irinotecan (Campto, Aventis) was prepared in 0.9% NaCl solution at the concentration of 20 mg/ml. The health status and survival of the mice were monitored till the death. […]

The results in this text go back to patent US7476729B2, “Dbait and uses thereof” (Institut Curie, priority 2003, dated 2009).

Bounds are passed on as bounds.

On to “Dbait32H: hairpin double strand DNA with a stem of 32-bp, hexaethyleneglycol linker, phosphorothioate at the free blunt end (DNA ACGCACGGGTGTTGGGTCGTTTGTTCGGATCT; DNA, backbone not given here; hairpin, hexaethyleneglycol loop, 3-bp phosphorothioate at free blunt end)”, for which the “level of γ-H2AX over time (FACS)” value in the data set with γ-H2AX in Hep2 cells was “remained high and long”. Also, the “γ-H2AX DSB foci (cell response)” value in data set [1] was “effectively trigger similar cell response as if DNA damages were occurred in nuclei”. For the same substance, the “mice with tumor volume<4 cm^3 at the day 25” value in data set [2] (1 nmole intratumoral and irradiation (1×15 Gy/week or 3×5 Gy/week)) amounted to 50%. Besides, the “Number of mice where Tumor volume <4 cm^3 At the day 25 (6 mice per group)” value in data set [2] (1 × 15 Gy/week) and in data set [2] (3 × 5 Gy/week) was 3/6 each time. Moreover, the median survival in data set [3] (0.1 mg Dbait32H oral with 0.6 mg 5FU and 0.6 mg CPT11 i.p., three times a week, three cycles) is given as 226 days. The “reduction of tumor numbers (macroscopy and histology)” value in data set [3] (5FU+CPT11 and Dbait32H (n=8) versus chemotherapy alone (n=7), week 18) is over 30%.
